“And” between values parts separate entries of the source, which are not always exact repeats. Equal values may be shown once.
Experiments:
Assay in all cases: Post-emergence test
Assay type in all cases: in vivo
Achillea millefolium = details: 34 days
From the text: (§1) The following formulations of the active compounds involved were used: • fatty acids 120 EC (fatty acid mixture of two fatty acids having hydrocarbon chains of 8 and 10 carbon atoms in a ratio of 60 to 40; for the preparation see EP application number 12177824.5; title: “Emulsifiable Concentrate Formulation with Herbicidal Active Fatty Acids); application date: Jul. 25, 2012). • foramsulfuron 50 WG (water dispersible granule) standard granule formulation without adjuvants • iodosulfuron 10 WG (water dispersible granule) • (commercial formulation Destiny, approved inter alia in Australia—Bayer CropScience) • mesosulfuron 75 WG (water dispersible granule) standard granule formulation without adjuvants • thiencarbazone 70 WG (water dispersible granule) standard granule formulation without adjuvants • flazasulfuron 25 WG (water dispersible granule) • (commercial formulation Chikara, approved inter alia in Germany—product licence holder ISK Biosciences) • amidosulfuron 75 WG (water dispersible granule) • (commercial formulation Hoestar, approved inter alia in Germany—Bayer CropScience) • ethoxysulfuron 60 WG (water dispersible granule) • (commercial formulation SunRice, approved inter alia in Italy—Bayer CropScience)
(§2) The active compound concentrations required for the tests were prepared by dilution with water. The tested active compound combinations were mixed shortly before their biological examination.
(§3) In the case of all herbicide combinations according to the invention, for most of the test plants synergistic actions are observed (see Tables 1 to 25).

Bellis perennis = details: 34 days
From the text: as §1, §2, §3

Chenopodium album = system: Chenopodium album
From the text: as §1, §2, §3

Festuca ovina = system: Festuca ovina
From the text: as §1, §2, §3

Lotus corniculatus = details: 34 days
From the text: as §1, §2, §3

Plantago lanceolata = details: 34 days
From the text: as §1, §2, §3

Plantago major = system: Plantago major
From the text: as §1, §2, §3

Ranunculus repens = details: 34 days
From the text: as §1, §2, §3

Rumex acetosa = details: 34 days
From the text: as §1, §2, §3

Stellaria media = details: 34 days
From the text: as §1, §2, §3

Taraxacum officinale = system: Taraxacum officinale
From the text: as §1, §2, §3

Trifolium repens = system: Trifolium repens
From the text: as §1, §2, §3

Poa annua = details: 48 days
From the text: as §1, §2, §3

[1] = 30 g of active compound/ha, 34 days
[2] = 60 g of active compound/ha, 34 days
[3] = 37.5 g of active compound/ha, 34 days
[4] = 15 g of active compound/ha, 48 days
[5] = 45 g of active compound/ha, 34 days
[6] = 45 g of active compound/ha, 48 days
[7] = 60 g of active compound/ha, 48 days
[8] = 1 g of active compound/ha, 48 days
[9] = 1.25 g of active compound/ha, 34 days
[10] = 1.25 g of active compound/ha, 48 days
[11] = 2.5 g of active compound/ha, 48 days
[12] = 10 g of active compound/ha, 48 days
[13] = 15 g of active compound/ha, 34 days
[14] = 20 g of active compound/ha, 34 days

In the case of `COc1cc(OC)nc(NC(=O)NS(=O)(=O)N(C)S(C)(=O)=O)n1` [Amidosulfuron, 3-(4,6-dimethoxypyrimidin-2-yl)-1-(N-methyl-N-methylsulfonylaminosulfonyl)urea], the “herbicidal effect [%]” value (Achillea millefolium; 30 g of active compound/ha) was 18%, the “herbicidal effect [%]” value (Bellis perennis; 30 g of active compound/ha) was 33% and the “herbicidal effect [%]” value (Chenopodium album; [1]) was 27%. For the same compound, the “herbicidal effect [%]” value (Festuca ovina; [1]) was 0%, the “herbicidal effect [%]” value (Lotus corniculatus; 30 g of active compound/ha) was 0% and the “herbicidal effect [%]” value (Plantago lanceolata; 30 g of active compound/ha) was 13%. The “herbicidal effect [%]” value (Plantago major; [1]) was 88%, the “herbicidal effect [%]” value (Ranunculus repens; 30 g of active compound/ha) was 96% and the “herbicidal effect [%]” value (Rumex acetosa; 30 g of active compound/ha) was 28%. The “herbicidal effect [%]” value (Stellaria media; 30 g of active compound/ha) was 10%, the “herbicidal effect [%]” value (Taraxacum officinale; [1]) was 88% and the “herbicidal effect [%]” value (Trifolium repens; [1]) was 13%.

`CCOc1ccccc1OS(=O)(=O)NC(=O)Nc1nc(OC)cc(OC)n1` [Ethoxysulfuron, 2-ethoxyphenyl[(4,6-dimethoxypyrimidin-2-yl)carbamoyl]sulfamate] was tested, and the “herbicidal effect [%]” value (Achillea millefolium; 60 g of active compound/ha) was 13%, the “herbicidal effect [%]” value (Bellis perennis; 60 g of active compound/ha) was 10% and the “herbicidal effect [%]” value (Chenopodium album; [2]) was 5%. The “herbicidal effect [%]” value (Festuca ovina; [2]) was 0%, the “herbicidal effect [%]” value (Lotus corniculatus; 60 g of active compound/ha) was 0% and the “herbicidal effect [%]” value (Plantago lanceolata; 60 g of active compound/ha) was 5%. For the same compound, the “herbicidal effect [%]” value (Plantago major; [2]) was 0%, the “herbicidal effect [%]” value (Ranunculus repens; 60 g of active compound/ha) was 92% and the “herbicidal effect [%]” value (Rumex acetosa; 60 g of active compound/ha) was 25%. For the same compound, the “herbicidal effect [%]” value (Stellaria media; 60 g of active compound/ha) was 5%, the “herbicidal effect [%]” value (Taraxacum officinale; [2]) was 38% and the “herbicidal effect [%]” value (Trifolium repens; [2]) was 47%.

In the case of `COc1cc(OC)nc(NC(=O)NS(=O)(=O)c2ncccc2C(F)(F)F)n1` [Flazasulfuron, 1-(4,6-dimethoxypyrimidin-2-yl)-3-(3-trifluoromethyl-2-pyridylsulfonyl)urea], the “herbicidal effect [%]” value (Achillea millefolium; 37.5 g of active compound/ha) was 67%, the “herbicidal effect [%]” value (Bellis perennis; 37.5 g of active compound/ha) was 52% and the “herbicidal effect [%]” value (Chenopodium album; [3]) was 70%. For the same compound, the “herbicidal effect [%]” value (Festuca ovina; [3]) was 68%, the “herbicidal effect [%]” value (Lotus corniculatus; 37.5 g of active compound/ha) was 23% and the “herbicidal effect [%]” value (Plantago lanceolata; 37.5 g of active compound/ha) was 7%. The “herbicidal effect [%]” value (Plantago major; [3]) was 75%, the “herbicidal effect [%]” value (Ranunculus repens; 37.5 g of active compound/ha) was 99% and the “herbicidal effect [%]” value (Rumex acetosa; 37.5 g of active compound/ha) was 52%. The “herbicidal effect [%]” value (Stellaria media; 37.5 g of active compound/ha) was 95%, the “herbicidal effect [%]” value (Taraxacum officinale; [3]) was 87% and the “herbicidal effect [%]” value (Trifolium repens; [3]) was 63%.

With `COc1cc(OC)nc(NC(=O)NS(=O)(=O)c2cc(NC=O)ccc2C(=O)N(C)C)n1` [Foramsulfuron, 1-(4,6-dimethoxypyrimidin-2yl)-3-(2-dimethylcarbamoyl-5-formamidophenylsulfonyl)urea] the “herbicidal effect [%]” value (Achillea millefolium; 45 g of active compound/ha) was 17%, the “herbicidal effect [%]” value (Bellis perennis; 45 g of active compound/ha) was 13% and the “herbicidal effect [%]” value (Chenopodium album; [4]) was 0%. For the same compound, the “herbicidal effect [%]” value (Chenopodium album; [5]) was 8%, the “herbicidal effect [%]” value (Chenopodium album; [6]) was 13% and the “herbicidal effect [%]” value (Chenopodium album; [7]) was 13.3% and 13%. The “herbicidal effect [%]” value (Festuca ovina; [4]) was 6.7%, the “herbicidal effect [%]” value (Festuca ovina; [5]) was 35% and the “herbicidal effect [%]” value (Festuca ovina; [6]) was 53%. For the same compound, the “herbicidal effect [%]” value (Festuca ovina; [7]) was 58.3% and 58%, the “herbicidal effect [%]” value (Lotus corniculatus; 45 g of active compound/ha) was 0% and the “herbicidal effect [%]” value (Plantago lanceolata; 45 g of active compound/ha) was 8%. For the same compound, the “herbicidal effect [%]” value (Plantago major; [4]) was 0%, the “herbicidal effect [%]” value (Plantago major; [5]) was 47% and the “herbicidal effect [%]” value (Plantago major; [6]) was 23%. The “herbicidal effect [%]” value (Plantago major; [7]) was 33.3% and 33%, the “herbicidal effect [%]” value (Poa annua; 15 g of active compound/ha) was 18.3% and the “herbicidal effect [%]” value (Poa annua; 45 g of active compound/ha) was 48%. The “herbicidal effect [%]” value (Poa annua; 60 g of active compound/ha) was 73.3% and 73%, the “herbicidal effect [%]” value (Ranunculus repens; 45 g of active compound/ha) was 95% and the “herbicidal effect [%]” value (Rumex acetosa; 45 g of active compound/ha) was 11%. For the same compound, the “herbicidal effect [%]” value (Stellaria media; 45 g of active compound/ha) was 18%, the “herbicidal effect [%]” value (Taraxacum officinale; [4]) was 45% and the “herbicidal effect [%]” value (Taraxacum officinale; [5]) was 55%. The “herbicidal effect [%]” value (Taraxacum officinale; [6]) was 70%, the “herbicidal effect [%]” value (Taraxacum officinale; [7]) was 75% and the “herbicidal effect [%]” value (Trifolium repens; [4]) was 18.3%. For the same compound, the “herbicidal effect [%]” value (Trifolium repens; [5]) was 20%, the “herbicidal effect [%]” value (Trifolium repens; [6]) was 53% and the “herbicidal effect [%]” value (Trifolium repens; [7]) was 60%.

With `COc1nc(C)nc(NC(=O)NS(=O)(=O)c2cc(I)ccc2C(=O)[O-])n1.[Na+]` [Iodosulfuron-methyl sodium salt, 4-iodo-2-[(4-methoxy-6-methyl-1,3,5-triazin-2-yl)carbamoylsulfamoyl]benzoate, sodium salt] the “herbicidal effect [%]” value (Achillea millefolium; 1.25 g of active compound/ha) was 5%, the “herbicidal effect [%]” value (Bellis perennis; 1.25 g of active compound/ha) was 10% and the “herbicidal effect [%]” value (Chenopodium album; [8]) was 0%. For the same compound, the “herbicidal effect [%]” value (Chenopodium album; [9]) was 13%, the “herbicidal effect [%]” value (Chenopodium album; [10]) was 0% and the “herbicidal effect [%]” value (Chenopodium album; [11]) was 10%. The “herbicidal effect [%]” value (Chenopodium album; [12]) was 40%, the “herbicidal effect [%]” value (Festuca ovina; [8]) was 0% and the “herbicidal effect [%]” value (Festuca ovina; [9]) was 0%. For the same compound, the “herbicidal effect [%]” value (Festuca ovina; [10]) was 0%, the “herbicidal effect [%]” value (Festuca ovina; [11]) was 0% and the “herbicidal effect [%]” value (Festuca ovina; [12]) was 6.7%. For the same compound, the “herbicidal effect [%]” value (Lotus corniculatus; 1.25 g of active compound/ha) was 0%, the “herbicidal effect [%]” value (Plantago lanceolata; 1.25 g of active compound/ha) was 3% and the “herbicidal effect [%]” value (Plantago major; [8]) was 0%. For the same compound, the “herbicidal effect [%]” value (Plantago major; [9]) was 22%, the “herbicidal effect [%]” value (Plantago major; [10]) was 3% and the “herbicidal effect [%]” value (Plantago major; [11]) was 30%. For the same compound, the “herbicidal effect [%]” value (Plantago major; [12]) was 53.3%, the “herbicidal effect [%]” value (Poa annua; 1 g of active compound/ha) was 0% and the “herbicidal effect [%]” value (Poa annua; 1.25 g of active compound/ha) was 0%. The “herbicidal effect [%]” value (Poa annua; 2.5 g of active compound/ha) was 0%, the “herbicidal effect [%]” value (Poa annua; 10 g of active compound/ha) was 0% and the “herbicidal effect [%]” value (Ranunculus repens; 1.25 g of active compound/ha) was 73%. The “herbicidal effect [%]” value (Rumex acetosa; 1.25 g of active compound/ha) was 12%, the “herbicidal effect [%]” value (Stellaria media; 1.25 g of active compound/ha) was 22% and the “herbicidal effect [%]” value (Taraxacum officinale; [8]) was 18.3%. The “herbicidal effect [%]” value (Taraxacum officinale; [9]) was 50%, the “herbicidal effect [%]” value (Taraxacum officinale; [10]) was 18% and the “herbicidal effect [%]” value (Taraxacum officinale; [11]) was 42%. For the same compound, the “herbicidal effect [%]” value (Taraxacum officinale; [12]) was 85%, the “herbicidal effect [%]” value (Trifolium repens; [8]) was 18.3% and the “herbicidal effect [%]” value (Trifolium repens; [9]) was 10%. For the same compound, the “herbicidal effect [%]” value (Trifolium repens; [10]) was 32%, the “herbicidal effect [%]” value (Trifolium repens; [11]) was 45% and the “herbicidal effect [%]” value (Trifolium repens; [12]) was 80%.

`COC(=O)c1ccc(CNS(C)(=O)=O)cc1S(=O)(=O)NC(=O)Nc1nc(OC)cc(OC)n1` [Mesosulfuron-methyl, methyl 2-[(4,6-dimethoxypyrimidin-2-ylcarbamoyl)sulfamoyl]-a-(methanesulfonamido)-p-toluate] was tested, and the “herbicidal effect [%]” value (Achillea millefolium; 15 g of active compound/ha) was 4%, the “herbicidal effect [%]” value (Bellis perennis; 15 g of active compound/ha) was 5% and the “herbicidal effect [%]” value (Chenopodium album; [13]) was 3%. The “herbicidal effect [%]” value (Festuca ovina; [13]) was 0%, the “herbicidal effect [%]” value (Lotus corniculatus; 15 g of active compound/ha) was 0% and the “herbicidal effect [%]” value (Plantago lanceolata; 15 g of active compound/ha) was 0%. The “herbicidal effect [%]” value (Plantago major; [13]) was 0%, the “herbicidal effect [%]” value (Ranunculus repens; 15 g of active compound/ha) was 80% and the “herbicidal effect [%]” value (Rumex acetosa; 15 g of active compound/ha) was 2%. The “herbicidal effect [%]” value (Stellaria media; 15 g of active compound/ha) was 2%, the “herbicidal effect [%]” value (Taraxacum officinale; [13]) was 42% and the “herbicidal effect [%]” value (Trifolium repens; [13]) was 2%.

`COC(=O)c1csc(C)c1S(=O)(=O)NC(=O)n1nc(OC)n(C)c1=O` [Thiencarbazone-methyl, methyl 4-[(4,5-dihydro-3-methoxy-4-methyl-5-oxo-1H-1,2,4-triazol-1yl)carbonylsulfamoyl]-5-methylthiophene-3-carboxylate] was tested, and the “herbicidal effect [%]” value (Achillea millefolium; 20 g of active compound/ha) was 25%, the “herbicidal effect [%]” value (Bellis perennis; 20 g of active compound/ha) was 28% and the “herbicidal effect [%]” value (Chenopodium album; [14]) was 23%. For the same compound, the “herbicidal effect [%]” value (Festuca ovina; [14]) was 42%, the “herbicidal effect [%]” value (Lotus corniculatus; 20 g of active compound/ha) was 2% and the “herbicidal effect [%]” value (Plantago lanceolata; 20 g of active compound/ha) was 67%. For the same compound, the “herbicidal effect [%]” value (Plantago major; [14]) was 87%, the “herbicidal effect [%]” value (Ranunculus repens; 20 g of active compound/ha) was 97% and the “herbicidal effect [%]” value (Rumex acetosa; 20 g of active compound/ha) was 52%. For the same compound, the “herbicidal effect [%]” value (Stellaria media; 20 g of active compound/ha) was 53%, the “herbicidal effect [%]” value (Taraxacum officinale; [14]) was 38% and the “herbicidal effect [%]” value (Trifolium repens; [14]) was 55%.
